Measurements as given in patent US20230233305A1, “METHOD OF AMELIORATING OR TREATING INFLAMMATORY IN AN ORAL CAVITY” (priority 2022, published 2023).

Legend:
[1] = system: domestic cats with feline chronic gingivostomatitis (FCGS); test: Stomatitis disease activity index (SDAI) after mucogingival replacement surgery; format: in vivo
Source text: The stomatitis disease activity index is to score the condition of the subject by the following three aspects respectively and then add three scores to get the index: (1) owner evaluation (total score 0-3): the quality of life including appetite, activity level, grooming behavior, and perceived comfort would be scored by the owner, with a scale of 0-3, 0 is the best, and 3 is the worst; (2) weight (total score 0-3): the change in weight compared to most recent visit, with a scale of 0-3, 0 is an increase of more than 0.5 kg, 1 is an increase of 0.25-0.5 kg, 2 is an increase of 0-0.25 kg, and 3 is weight loss; (3) inflammatory symptoms (total score 0-24): inflammation in 8 different areas of the oral cavity, including maxillary buccal mucosa, mandibular buccal mucosa, maxillary attached gingiva, mandibular attached gingiva, lateral to palatoglossal folds, molar salivary gland, oropharynx, and sublingual area, with scale of 0-3, 0 is none, 1 is mild, 2 is moderate, and 3 is severe.

[2] = system: VDR; test: Immunohistochemistry of inflamed oral mucosal tissue with anti-VDR; format: in vivo, domestic cats; conditions: after 6-week treatment vs 0th week
Method: (§1) The procedure of immunohistochemistry is briefly described as following. All steps are performed on the Leica Bond Max automatic immunohistochemistry machine. The aforementioned inflamed oral mucosal tissues fixed with formalin and embedded in paraffin is sectioned with a thickness of 5 μm, and placed on a glass slide suitable for performing immunohistochemistry. The tissue section is placed in a 50° C. oven for 15 minutes and is dewaxed twice with Bond Dewax Solution for 5 minutes. The tissue section is washed three times with Tris buffered saline (TBS, pH 7.6) for 5 minutes, and then treated with Bond Leica Alcohol for 5 minutes for tissue rehydration. After being washed three times with TBS for 5 minutes, the tissue section is heated at 100° C. with Bond Citrate buffer (pH 6), and the tissue used for detecting VDR is heated for 20 minutes, and the tissue used for detecting LC3B is heated for 40 minutes. After being washed three times with TBS for 5 minutes, the tissue section is reacted with Bond Peroxide solution for 8 minutes. After being washed three times with TBS for 5 minutes, the tissue section is reacted with Bond Protein blocking solution for 10 minutes. After being washed three times with TBS for 5 minutes, the tissue section is reacted with the primary antibodies for 30 minutes at room temperature, wherein the dilution ratio of anti-VDR antibody (ab3508) is 500×, and the dilution ratio of anti-LC3B antibody (ab239416) is 50×. After being washed three times with TBS for 5 minutes, the tissue section is reacted with Bond Post primary solution containing rabbit anti-mouse IgG antibody for 10 minutes. After being washed three times with TBS for 5 minutes, the tissue section is reacted with Bond Post primary solution containing Poly-HPR IgG for 10 minutes. After being washed three times with TBS for 5 minutes, the tissue section is reacted twice with Bond DAB solution for 3 minutes for coloration. […] The staining intensity and frequency of oral mucosal epithelial cells in the tissues are evaluated by the method provided by Shackelford. […]

[3] = system: LC3B; test: Immunohistochemistry of inflamed oral mucosal tissue with anti-LC3B; format: in vivo, domestic cats; conditions: after 6-week treatment vs 0th week
Method: as §1

[4] = 0th week, vitamin D 200 ng/kg oral + 5 mg/kg deoxytetracycline (control: deoxytetracycline only), 5 mg/kg
[5] = 6th week, vitamin D 200 ng/kg oral + 5 mg/kg deoxytetracycline (control: deoxytetracycline only), 5 mg/kg

Substance: deoxytetracycline [control group (A)]
- stomatitis disease activity index (SDAI) score ([1]; 0th week, vitamin D 200 ng/kg oral + 5 mg/kg deoxytetracycline (control: deoxytetracycline only)): 11.44
- stomatitis disease activity index (SDAI) score ([1]; 2nd week, 5 mg/kg deoxytetracycline): 9.19
- stomatitis disease activity index (SDAI) score ([1]; 6th week, vitamin D 200 ng/kg oral + 5 mg/kg deoxytetracycline (control: deoxytetracycline only)): 11.22
- VDR in the inflamed oral mucosal tissue (IHC intensity and frequency) [2]: decreases
- LC3B in the inflamed oral mucosal tissue (IHC intensity and frequency) [3]: basically maintains a constant value

Substance: vitamin D [water-soluble vitamin D]
- stomatitis disease activity index (SDAI) score [1, 4]: 17.67
- stomatitis disease activity index (SDAI) score [1, 5]: 13.92
- VDR in the inflamed oral mucosal tissue (IHC intensity and frequency) [2]: remains unchanged
- LC3B in the inflamed oral mucosal tissue (IHC intensity and frequency) [3]: increases

Substance: vitamin D [fat-soluble vitamin D]
- stomatitis disease activity index (SDAI) score [1, 4]: 13
- stomatitis disease activity index (SDAI) score [1, 5]: 11.5
- VDR in the inflamed oral mucosal tissue (IHC intensity and frequency) [2]: increases
- LC3B in the inflamed oral mucosal tissue (IHC intensity and frequency) [3]: increases
